In test [1] the test system is Bifidobacterium animalis. Put plainly: Growth of B. animalis in MRS media, OD600 plate reader. In kind it is cell-based. The note with it: 24 hrs. The method, then:
MRS media was inoculated with 1% overnight grown culture of Bifidobacterium animalis. Cells were grown with the addition of 5 mM ATP (Sigma) or 100 nM potato apyrase (ATPase; Sigma catalog #A6535). Experiments were performed in volumes of 200 μl per well in standard microtiter plates. Growth was assessed via Synergy HTX multi-mode plate reader (Bio Tek Instruments) at OD600 every 30 minutes for 24 hrs. Each plate was incubated at 37° C. and shaken once every 30 mins just before the reading.
MRS media was inoculated with 1% over night grown culture of B. animalis. Cells were grown with 100 nM potato apyrase (ATPase) or heat-treated (95° C. for 10 mins) 100 nM potato apyrase. Experiments were performed in volumes of 200 μl per well in standard microtiter plates. Growth was assessed via plate reader at OD600 every 30 minutes.

The subject of a further test is Akkermansia sp. Put plainly: Effect of ATP and ATPase on growth (OD600), Table 1. The note with it: YCFAC + Mucin media; 5 mM ATP; 37° C. anaerobically, 48 hours. In kind it is cell-based. The method, then: (§1) Different growth media were inoculated with 1% over night grown culture of various bacterial and yeast species (as detailed in Table 1). Cells were grown in the presence of 5 mM exogenously-added ATP or 100 nM potato apyrase or bovine alkaline phosphatase (ATPase). Experiments were done in volumes of 200 μl per well in standard microtiter plates. Growth was assessed via plate reader at OD600 every 30 minutes for 48 hours. All the experiments were done at 37° C. anaerobically except for yeast strain Kazachstania unispora where cells were grown aerobically at 28° C.

In test [2] the test system is Bacillus amyloliquefaciens. The description is as above. The note with it: TSA media; 5 mM ATP; 37° C. anaerobically, 48 hours. In kind it is cell-based. As for the experimental part: as §1
In the next test the test system is Bifidobacterium Infantis. The test is described as above. Format: cell-based. The note with it: MRS media; 5 mM ATP; 37° C. anaerobically, 48 hours. As for the experimental part: as §1
The test system of test [3] is Bifidobacterium animalis. The description is as above. The note with it: MRS media; 5 mM ATP; 37° C. anaerobically, 48 hours. Format: cell-based. As for the experimental part: as §1
The next test concerns Bifidobacterium lactis. The test is described as above. The note with it: MRS media; 5 mM ATP; 37° C. anaerobically, 48 hours. In kind it is cell-based. As for the experimental part: as §1
The next test relates to Bifidobacterium longum. The test is described as above. Format: cell-based. The note with it: BHI media; 5 mM ATP; 37° C. anaerobically, 48 hours. The method, then:
as §1

The next test has as its system Kazachstania unispora. The description is as above. In kind it is cell-based. The note with it: YM media; 5 mM ATP; aerobically at 28° C., 48 hours. As for the experimental part: as §1
The next test concerns Lactobacillus crispatus. The test is described as above. In kind it is cell-based. The note with it: MRS media; 5 mM ATP; 37° C. anaerobically, 48 hours. As for the experimental part: as §1
Another test deals with Lactobacillus rhamnosus. The description is as above. In kind it is cell-based. The note with it: 5 mM ATP, 37° C. anaerobically, 48 hours. As for the experimental part:
as §1

Another test deals with Oscillibacter sp. Described as above. In kind it is cell-based. The note with it: YCFAC media; 5 mM ATP; 37° C. anaerobically, 48 hours. The method, then: as §1
In a further test the test system is Prevotella copri. The description is as above. In kind it is cell-based. The note with it: TSA media; 5 mM ATP; 37° C. anaerobically, 48 hours. As for the experimental part: as §1
Test [4] relates to B. animalis subsp. lactis 420. Put plainly: eATP in culture supernatants, Luciferase Reporter Assay. The note with it: 100 nM potato apyrase; MRS, 37° C. anaerobic; 0, 7 and 13 hr. In kind it is cell-based. As for the experimental part: MRS media was inoculated with 1% overnight grown culture of B. animalis subsp. lactis 420. Cells were grown at 37° C. under anaerobic conditions with and without potato apyrase. Potato apyrase was used at 100 nM. 200 μl of the sample was collected at different time points. Cells were harvested by centrifugation at 5000 rpm for 5 mins. Supernatants were used to estimate nanomolar ATP using a Luciferase® Reporter Assay System (Promega).
ATP measurements were performed on supernatants collected at 0, 7 and 13 hr time points.
For orientation: A reporter such as luciferase makes a cellular process visible.

Another test relates to CHO wild-type cell line. Put plainly: CHO cell growth in suspension, trypan blue cell count. In kind it is cell-based, Chinese hamster. The note with it: for increase in CHO cell numbers: 10 nM ATPase, after 60 hrs of growth in suspension. The source says: (§2) The growth effect of exogenously added ATPase enzymes was examined on established mammalian (Chinese hamster ovary (CHO)) cell lines. CHO wild-type cell line was purchased from Creative Biogene (NY, USA) Cat No. CSC-C3064, and CHO cell line constitutively expressing Green Fluorescent Protein (CHO-GFP) was purchased from GenTarget, Inc (San Diego, CA, USA) Cat No. SC039-Puro. Wild type CHO cell line was maintained in CD OptiCHO™ (ThermoFisher) medium for growth in suspension. GFP expressing CHO cell line was maintained in RPMI 1640 media (ThermoFisher) for adherent growth. Cell lines were cultured in a humidified incubation chamber at 37° C. with 5% CO2.
To measure the effect on CHO cells in suspension, cultures were seeded onto the wells of 6-well plates at 1×10^4 cells per well and incubated for 12 hours. Subsequently, ATPase (potato apyrase or bacterial enzyme CRC22110 (SEQ ID NO:1)) were added to the wells at 10 nM final concentration and incubated for an additional 48 hours. The potato apyrase (Cat No. A6410) and, was sourced from Sigma. The recombinant CRC22110 (SEQ ID NO: 1) enzyme was purified from Bacillus cultures using chromatography methods known in the art. After a total of 60 hours in culture, cells were detached by trypsin treatment, stained with trypan blue and counted in a Countess 3 FL system (Invitrogen). Data on FIG. 4 show the effect of ATPase on CHO cell growth.

For a further test, the system named is CHO-GFP cell line. Put plainly: GFP expression of CHO-GFP cell line in adherent culture, fluorescence imaging. Format: cell-based, Chinese hamster. The note with it: 10 nM ATPase; imaged after 60 hrs.
Description: as §2
To study the effect of exogenous ATPase on recombinant protein expression by mammalian cells, the CHO-GFP cell line was used. CHO-GFP cells were seeded onto the wells of 6-well plates at 1×10^4 cells per well and incubated for 12 hours. Subsequently, ATPase (potato Apyrase or bacterial enzyme CRC22110) were added to the wells at 10 nM final concentration and cells were incubated for an additional 48 hours For GFP expression visualization, cells were imaged after 60 hrs of incubation with ATPase by using Invitrogen™ EVOS™ FL Imaging System. […] The number of cells displaying fluorescence signal and the amount of fluorescence are both increased in the cultures grown with exogenous ATPases, potato apyrase or CRC22110.

Consider `Nc1ncnc2c1ncn2[C@@H]1O[C@H](COP(=O)(O)OP(=O)(O)OP(=O)(O)O)[C@@H](O)[C@H]1O` [ATP, Adenosine triphosphate], for which, in the test on Bifidobacterium animalis [1] (5 mM exogenously added ATP, 37° C.), the “cellular growth (OD600)” value is reported as “supressed”. The “Sensitivity to ATP” value (with Akkermansia sp; in [2]; in the test on Bifidobacterium Infantis; with Bifidobacterium animalis [3]; with Bifidobacterium lactis; in the test with Bifidobacterium longum) was “YES” in each case. For the same molecule, the “Sensitivity to ATP” value with Kazachstania unispora, in the test on Lactobacillus crispatus, in the test with Lactobacillus rhamnosus (BHI media), in the test with Lactobacillus rhamnosus (MRS media), with Oscillibacter sp and with Prevotella copri was “YES” each time.

B1: potato apyrase: potato apyrase (ATPase; Sigma), EC 3.6.1.5; SEQ ID NO: 3, predicted mature SEQ ID NO: 4 (protein, listed as Solanum tuberosum)
chain: KNVNAQIPLRRHLLSHESEHYAVIFDAGSTGSRVHVFRFDEKLGLLPIGNNIEYFMATEPGLSSYAEDPKAAANSLEPLLDGAEGVVPQELQSETPLELGATAGLRMLKGDAAEKILQAVRNLVKNQSTFHSKDQWVTILDGTQEGSYMWAAINYLLGNLGKDYKSTTATIDLGGGSVQMAYAISNEQFAKAPQNEDGEPYVQQKHLMSKDYNLYVHSYLNYGQLAGRAEIFKASRNESNPCALEGCDGYYSYGGVDYKVKAPKKGSSWKRCRRLTRHALKINAKCNIEECTFNGVWNGGGGDGQKNIHASSFFYDIGAQVGIVDTKFPSALAKPIQYLNAAKVACQTNVADIKSIFPKTQDRNIPYLCMDLIYEYTLLVDGFGLNPHKEITVIHDVQYKNYLVGAAWPLGCAIDLVSSTTNKIRVASS
For B1, the “growth (OD600) versus cells-only control” value with Bifidobacterium animalis [1] (100 nM potato apyrase alone) is “grew better than the cells-only control”. Moreover, in the test with Bifidobacterium animalis [1] (100 nM potato apyrase plus 5 mM ATP), the “growth (OD600) in the presence of exogenously-added ATP” value is reported as “negated the growth inhibitory effect of exogenously-added ATP”. For the same molecule, in [4], the “ATP accumulation in culture supernatant” value is “did not exhibit ATP accumulation” and the “nanomolar ATP over time in culture supernatant” value is “decrease”. In the test with CHO wild-type cell line, the “increase in CHO cell numbers” value stood at 3 fold. For the same molecule, the “number of viable cells in culture (trypan blue exclusion)” value with CHO wild-type cell line (10 nM potato apyrase, 60 hours in culture) is on record as “improves the number of viable cells in culture”. Besides, in the test on CHO-GFP cell line, the “amount of fluorescence (GFP)” value is “increased” and the “number of cells displaying fluorescence signal (GFP)” value is recorded as “increased”.

B2: CRC22110: recombinant bacterial enzyme CRC22110 (SEQ ID NO:1), Gallaecimonas xiamenensis 3-C-1, purified from Bacillus cultures (protein, listed as Gallaecimonas xiamenensis)
chain: ADKPACRAVFDAGSSGTRLFLYVQQEGGWQPWPGAKLGALADPVRQHQGPKAMAALAADLANSLEALRQDGPTNSEGQPRWQGFDWQQACRLQSVSVLATAGMRLAEQQDPVASVALWQEVQQALAGLLGPAVAIDARTLTGFEEGFYAWLAARARLGRSDMGIVEMGGASSQVAFPCPACDRADDAVQQVRLEGQTLDFYSYSFLGLGQDEAPKVLGVPHACRYGAGVKDPNWQLGQCQAQLPLTLGRALKDPYNFQGQGQGGYRQVPTEKAGVKDWLLTGAFQYNTPDQLDSCCLNQGQCYQPSTACFRVAYLPLYLDSLGVDPHSPDLDVSWTLGAVLCRNEQCLAPSKPPCRWRKAGCLAPSVGDGRPEGRPGQQPGGVQHRQH
Regarding B2, the “increase in CHO cell numbers” value with CHO wild-type cell line is reported as 3 fold. In the test with CHO-GFP cell line, the “amount of fluorescence (GFP)” value was “increased” and the “number of cells displaying fluorescence signal (GFP)” value is listed as “increased”.

These data come from patent publication US20240425805A1, “CELL CULTURE METHODS” (INTERNATIONAL N&H DENMARK APS, priority 2021, published 2024).
